Results taken from publication PMC9927457 (Microbiology Spectrum, 2023).

Columns and labels:
[1] = system: HepG2 cells; experiment: HepG2 cytotoxicity; assay type: cell-based, human; conditions: Homo sapiens, HepG2, 72 h, 3 days exposure, CellTiter-Glo
Experimental: HepG2 cells were used to measure eukaryotic cytotoxicity. Viability of HepG2 was measured using CellTiter-Glo reagent (Promega) after 3 days of exposure to compounds. […] Staurosporine controls (maximum inhibition) and a staurosporine dose response were included on every plate.

[2] = target: CYP3A4 (Homo sapiens, UniProt P08684); experiment: Cytochrome P450 inhibition; assay type: in vitro ADME; conditions: liver microsomes
Experimental: (§1) Table S4. Inhibition of cytochrome P450s.
(§2) Compounds were tested for inhibition of P450s using the enzyme substrate pairs and conditions noted. IC50s (µM) were calculated. Control P450 inhibitors were included for each isoform.
(§3) For each compound, the analytical method was developed as follows. Analyte signal was optimized for each compound by ESI positive or negative ionization mode. An MS2 scan or an SIM scan was used to optimize fragmenter voltage and a product ion analysis was used to identify the best fragment for analysis. The collision energy was optimized using a product ion or MRM scan. An ionization ranking was assigned indicating the compound’s ease of ionization. Samples […]
(§4) 1200 HPLC and a CTC PAL chilled autosampler, all controlled by MassHunter software (Agilent).
(§5) After separation on a C18 reverse phase HPLC column (Agilent Zorbax StableBond 3.5µm, 2.1 x 30 mm) using an acetonitrile -water gradient system, peaks were analyzed by mass spectrometry (MS) using ESI ionization in MRM mode.
(§6) (1 picture or pasted object on this page, not shown here)
(§7) Serial dilutions of a 10 mM stock solution were prepared in acetonitrile:DMSO (9:1). The final DMSO concentration was < 0.2%. Compounds were incubated with human liver microsomes in the presence of 2 mM NADPH in 100 mM potassium phosphate (pH 7.4) containing 5 mM magnesium chloride and a probe substrate, in a 200 µl assay final volume in duplicate. The probe substrate concentrations including bupropion (CYP2B6), amodiaquine (CYP2C8), tolbutamide (CYP2C9), mephenytoin (CYP2C19), dextromethorphan (CYP2D6) and midazolam/testosterone […]
(§8) After incubation at 37 °C, reactions were terminated by addition of methanol containing internal standard (propranolol) for analytical quantification. The quenched samples were kept on ice for 10 min and centrifuged at 4 °C for 10 min. The supernatant was removed and the probe substrate metabolite was analyzed by LC-MS/MS (Agilent Technologies Triple Quad LC/MS). A decrease in the formation of the metabolite compared to vehicle control

[3] = target: CYP2C19 (Homo sapiens, UniProt P33261); experiment: biochemical
Experimental: as §1, §2, §3, §4, §5, §6, §7, §8

[4] = target: T1, CYP2C8 (Homo sapiens, UniProt P10632); experiment: biochemical
T1 sequence (P10632 1-490): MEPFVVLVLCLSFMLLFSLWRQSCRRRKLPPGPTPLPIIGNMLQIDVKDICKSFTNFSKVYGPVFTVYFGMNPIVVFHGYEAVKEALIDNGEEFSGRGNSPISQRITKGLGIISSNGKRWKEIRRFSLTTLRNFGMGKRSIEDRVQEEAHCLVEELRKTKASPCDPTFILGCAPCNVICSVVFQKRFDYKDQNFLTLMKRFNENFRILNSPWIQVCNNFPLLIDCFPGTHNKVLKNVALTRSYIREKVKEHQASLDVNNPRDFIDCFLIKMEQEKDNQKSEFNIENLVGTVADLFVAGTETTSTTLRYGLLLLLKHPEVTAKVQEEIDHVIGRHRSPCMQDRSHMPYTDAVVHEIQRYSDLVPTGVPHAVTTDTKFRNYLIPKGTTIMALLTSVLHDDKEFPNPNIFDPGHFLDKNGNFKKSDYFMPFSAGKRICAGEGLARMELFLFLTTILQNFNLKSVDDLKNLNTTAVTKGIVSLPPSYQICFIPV
Experimental: as §1, §2, §3, §4, §5, §6, §7, §8

[5] = system: RAW 264.7 macrophages; experiment: Cytotoxicity against infected macrophages; assay type: cell-based, murine; conditions: Mus musculus; infected RAW264:7 cells, 72 h; read-out: IC50 Macrophage
Experimental: Murine RAW 264.7 macrophages (ATCC TIB-71) were infected with M. tuberculosis DsRed (DREAM8) ([29]) as described at a multiplicity of infection of 1 for 24 h, washed, harvested, and dispensed into 384-well plates ([30]). Infected macrophages were exposed to compounds for 72 h; cell nuclei were stained with SYBR green I. Plates were imaged with an ImageXpress Micro High Content Screening System (Molecular Devices) using a ×4 objective and FITC and Texas Red channels. MetaXpress was used to determine the integrated intensity of bacteria or macrophages. […] Isoniazid and staurosporine controls (maximum inhibition) and dose responses were included on every plate.

[6] = Microsomal metabolic stability; conditions: human; for half-life at 1 µM: liver microsomes
Experimental: (§9) Permeability was measured across Caco-2 cells cultured in a Millipore 96-well Caco-2 plate. For apical to basolateral (A→B) permeability, 10 μM compound was added to the apical (A) side and amount of permeation was determined on the basolateral (B) side; for basolateral to apical (B→A) permeability, the compound was added to the B side and the amount of permeation was determine on the A side. Time points were taken at 2 h.
Table S3. Metabolic stability. Metabolic stability was measured using human liver microsomes. […]

[7] = system: Caco-2 cells; experiment: Caco-2 permeability; conditions: for recovery: human, 10 μM
Experimental: as §9
(§10) Table S2. Permeability. Permeability was measured using Caco-2 cells after 1 and 2 hours incubation with compound. (A→B) is Apical to Basolateral; (B→A) is Basolateral to Apical. Data is expressed as permeability (10-6 cm s-1). dQ/dt is rate of permeation, C0 is initial concentration […]
(§11) Article Duration direction value replicate replicate mean recovery

[8] = in vitro; conditions: human; for Papp A→B at 2 h, 10 µM / Papp B→A at 2 h, 10 µM / efflux ratio at 2 h, 10 µM: Caco-2
Experimental: as §9, §10, §11

Sequence of CYP3A4 (P08684 2-503): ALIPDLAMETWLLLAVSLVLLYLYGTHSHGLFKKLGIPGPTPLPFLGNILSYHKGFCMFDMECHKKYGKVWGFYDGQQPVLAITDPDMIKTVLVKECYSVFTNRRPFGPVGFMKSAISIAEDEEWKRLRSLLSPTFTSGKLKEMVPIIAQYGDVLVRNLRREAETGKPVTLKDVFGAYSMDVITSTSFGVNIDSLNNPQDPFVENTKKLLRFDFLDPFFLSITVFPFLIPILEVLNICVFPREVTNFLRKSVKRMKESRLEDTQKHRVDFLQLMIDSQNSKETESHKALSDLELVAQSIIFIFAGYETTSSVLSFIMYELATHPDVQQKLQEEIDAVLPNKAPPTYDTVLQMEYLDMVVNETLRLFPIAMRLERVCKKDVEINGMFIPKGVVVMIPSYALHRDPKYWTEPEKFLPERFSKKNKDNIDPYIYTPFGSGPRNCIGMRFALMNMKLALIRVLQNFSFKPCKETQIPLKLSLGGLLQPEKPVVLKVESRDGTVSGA
Sequence of CYP2C19 (P33261 whole entry): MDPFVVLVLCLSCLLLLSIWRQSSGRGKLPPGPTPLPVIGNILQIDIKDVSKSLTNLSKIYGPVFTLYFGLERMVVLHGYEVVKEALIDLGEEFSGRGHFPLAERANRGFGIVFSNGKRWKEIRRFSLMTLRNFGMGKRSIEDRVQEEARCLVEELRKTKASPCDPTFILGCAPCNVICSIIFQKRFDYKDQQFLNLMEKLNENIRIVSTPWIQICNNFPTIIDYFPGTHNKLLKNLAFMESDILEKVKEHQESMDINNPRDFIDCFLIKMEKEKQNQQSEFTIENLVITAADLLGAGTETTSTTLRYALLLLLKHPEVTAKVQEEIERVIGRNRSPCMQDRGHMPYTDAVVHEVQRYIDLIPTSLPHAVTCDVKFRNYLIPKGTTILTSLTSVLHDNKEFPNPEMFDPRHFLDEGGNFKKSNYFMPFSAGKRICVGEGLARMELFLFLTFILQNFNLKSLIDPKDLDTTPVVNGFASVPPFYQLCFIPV

SMILES	IC50 [1] [µM]	IC50 at 10 min ([2]; pH 7.4, probe midazolam) [µM]	IC50 at 10 min ([2]; pH 7.4, probe testosterone) [µM]	IC50 [3] [µM]	IC50 [4] [µM]	IC50 [5] [µM]	half-life at 1 µM ([6]; pH 7.4) [min]	microsomal CLint at 1 µM ([6]; microsomes, pH 7.4) [µL/min/mg]	dQ/dt (rate of permeation), mean ([7]; A→B, assay duration 1 hr)	dQ/dt (rate of permeation), mean ([7]; A→B, assay duration 2 hr)	dQ/dt (rate of permeation), mean ([7]; B→A, assay duration 1 hr)	dQ/dt (rate of permeation), mean ([7]; B→A, assay duration 2 hr)	Papp A→B at 2 h, 10 µM [8] [×10⁻⁶ cm/s]	Papp B→A at 2 h, 10 µM [8] [×10⁻⁶ cm/s]	efflux ratio at 2 h, 10 µM [8]	further results
CCCCNC(=S)Nc1nc2ccccc2s1 [Molecule 1, 1-(benzo[d]thiazol-2-yl)-3-butylthiourea]	26 ± 12	> 20	> 20	4.6	> 20	> 100	24	96	9.7E-06	2.1E-05	2.4E-05	3.8E-05	1.4	2.5	1.7	Percent remaining %REavg ([6]; microsomes, 5 min, 1 µM, pH 7.4): 98.1%; remaining at 5 min, 1 µM ([6]; microsomes, pH 7.4, Percent remaining %REavg): 96.6%
CCCCNC(=S)Nc1nc(C)co1 [Molecule 21, 1-butyl-3-(4-methyloxazol-2-yl)thiourea]	42 ± 12	> 20	11.9	> 20	> 20	6 ± 1	13	179	4.2E-04	3.0E-04	3.8E-04	2.8E-04	21	19	0.89	recovery ([7]; Caco-2, 1 h): 77%; recovery ([7]; Caco-2, 2 h): 67%; recovery at 1 h, 10 μM ([8]; Caco-2, recovery): 59%; recovery at 2 h, 10 μM ([8]; Caco-2, recovery): 56%
